Reference: patent US11519922B2, “Methods for identifying risk of chemotherapy-induced cardiotoxicity and targeted medical intervention” (Detroit R&D, Inc., priority 2018, dated 2022)
Entries after “also recorded” stand apart in the source; their conditions may differ.

Columns and labels:
H9c2 rat cardiomyocytes [1] = assay: MTT cell viability assay; assay type: cell-based; conditions: 1 μM DOX 2 hr, then fresh media 24 hr; compared to untreated control cells
Protocol: Cell viability was determined using the 3-[4,5-dimethylthiazol-2-yl]-2,5-diphenyltetrazolium bromide (MTT) assay (13) for cells incubated with and without 1 μM of DOX in media for 2 hr followed by fresh media for another 24 hours. The DOX treated cells maintained more than 90% cell viability compared to untreated control cells.
Rat H9c2 cell line was purchased from American Type Culture Collection (Manassas, Va.) and cultured on polystyrene culture plates in a humidified incubator at 37° C. in an atmosphere of 5% CO2 and 95% air. The H9c2 cells were grown in high glucose DMEM supplemented with 4.5 g/l glucose, 0.15% sodium bicarbonate, 0.11% sodium pyruvate, 10% fetal bovine serum, […], 100 IU/ml penicillin and 10 μg/ml streptomycin. When cells reached 80-90% confluency, media was replaced with media containing 1 μM DOX (Sigma) dissolved in DMSO. Cells were treated for 2 hr and collected immediately (0 hr) or washed and kept for 2, 6 and 24 hr in media without DOX.
The effect of DOX on cell viability was determined by 3-[4,5-dimethylthiazol-2-yl]-2,5-diphenyltetrazolium bromide (MTT) assay (13).

H9c2 rat cardiomyocytes [2] = assay: Cell hypertrophy assay (cell surface area, ImageJ); assay type: cell-based; conditions: 1 μM DOX 2 hr
Protocol: Cells were treated for 2 hr with media containing 1 μM DOX, washed and kept for 2, 6 and 24 hr in media without DOX. Cell sizes (cell surface area) were measured using image J software. Results expressed as mean±SD (n=6-44);
Increased cell surface area (hypertrophy) was found at 6 hr and 24 hr after DOX treatment (p<0.05) whereas no changes were observed after 2 hr (˜100 cells measured/group) (FIG. 2).
For cell hypertrophy assay, rat H9c2 cells grown overnight in a plate containing a glass cover slip were fixed at 2, 6 and 24 hr after 2 hr 1 μM DOX treatment and stained with hematoxylin and eosin and images were taken using a using a Zeiss Axiovert microscope. ImageJ software was used to measure the surface area of the cells.

H9c2 rat cardiomyocytes [3] = assay: BNP mRNA levels in cells by qRT-PCR; assay type: cell-based; conditions: 1 μM DOX 2 hr, normalized by β-actin mRNA
Protocol: (§1) FIGS. 1A and 1B show the effect of doxorubicin (DOX) on H9c2 rat cardiomyocytes. Cells were treated for 2 hr with media containing 1 μM DOX, washed and kept for 2, 6 and 24 hr in media without DOX. BNP mRNA levels in H9c2 cells were assessed by qRT-PCR (A) and cell media was collected and extracted with ethyl acetate for 14,15-DHET analyses using ELISA kit (Detroit R&D) (B). *p<0.05;
Normalized BNP levels were decreased 6 hr and 24 hr after 2 hr of DOX treatment (p<0.05) (FIG. 1A) when cardiomyocyte hypertrophy occurred ([…]).
BNP mRNA was assessed in rat H9c2 cells. […] Results were normalized using β-actin mRNA levels using a rat specific primer (13). Our results have shown that BNP levels were decreased 6 and 24 hr after 2 hr of DOX treatment (FIG. 1A) when cell hypertrophy was detected (FIG. 2).

H9c2 rat cardiomyocytes [4] = assay: 14,15-DHET in cell media by ELISA; assay type: cell-based; conditions: 1 μM DOX 2 hr
Protocol: as §1
H9c2 cardiomyocytes were treated for 2 hr with and without 1 μM DOX. Levels of 14,15-DHET in cell media increased ˜3-fold (p<0.05) after a 2 hr recovery period prior to detection of cellular hypertrophy at 6 hr and 24 hr recovery periods.
Levels of 14,15-DHET in cardiomyocyte (H9c2 cell) media were assessed by the Detroit R&D 14,15-DHET ELISA. Media, 2 ml, was extracted with 2 ml […]. and levels of 14,15-DHET increased after 2 hr, 6 hr and 24 hr following 2 hr DOX treatment (2 hr, 6 hr and 24 hr recovery) (FIG. 1B).

[5] = system: soluble epoxide hydrolase (sEH) in H9c2 cells; assay: sEH protein expression by Western blot; assay type: cell-based, rat; conditions: 1 μM DOX 2 hr, cells harvested at 6 hr; normalized by beta-actin
Protocol: FIGS. 5A and 5B show the effect of doxorubicin (DOX) on soluble epoxide hydrolase (sEH) expression in rat H9c2 cardiomyocytes cells (A) and NAG-1 (MIC-1, GDF-15), a plasma cardiotoxicity biomarker (B). Panel A, cells harvested at 6 hr with (Lane 2) and without (Lane 1) treatment of doxorubicin (DOX) (2 hr, final concentration 1 μM). Protein expression of sEH, GAPDH and beta-actin expressed in the cells were assessed by Western blot analysis. Expression levels of sEH were normalized by beta-actin protein levels and Panel B, Western blot analysis carried out under non-reducing/non-denaturing condition for NAG-1 protein in plasma samples obtained from healthy subjects (pooled plasma sample, control) and 3 breast cancer patients with cardiovascular disease (cardiotoxicity, Innovative Research);
Increased sEH protein levels after DOX treatment was detected by Western blot analysis using sEH antibody (Detroit R&D) (FIG. 5A).

rat serum = assay: Serum fatty acid biomarkers by ELISA in DOX-treated female rats; assay type: in vivo; conditions: DOX 3 mg/kg/week 2 weeks
Protocol: To verify that 14,15-DHET levels can be used as an early biomarker for prediction of DOX-dependent cardiotoxicity as previously found in the rat cardiomyocyte study (FIG. 1 and FIG. 2), levels of 14,15-DHET (sEH metabolite) in serum samples from control and DOX-treated rats with and without 2-week recovery were measured using a 14,15-DHET ELISA kit (Detroit R&D).
Levels of 20-HETE (CYP4A/4F-dependent hypertension biomarker) and 8-isoprostane (non-enzymatic oxidative stress biomarker) in rat serum samples were also measured using 20-HETE and 8-isoprostane ELISA kits, respectively, from Detroit R&D.
Biologically active fatty acids were extracted with ethyl acetate from 75 μl of serum samples (n=4) from control and DOX-treated animals with and without 2 weeks recovery. […] However, two weeks after the second injection (2 weeks recovery), when cardiotoxicity was still not detected, levels of 14,15-DHET (a metabolite of soluble epoxide hydrolase) and 8-isoprostane (non-enzymatic oxidative stress biomarker) were increased compared to the control group (FIG. 3B and FIG. 3D). No changes in levels of 20-HETE in rat serum samples between the two groups were observed (FIG. 3C).

[6] = system: plasma of breast cancer patients; assay: Plasma troponin I (TnI) in breast cancer patients after DOX treatment; assay type: in vivo, human
rat heart tissue = assay: Heart tissue mRNA biomarkers by RT-PCR in DOX-treated female rats; conditions: DOX 3 mg/kg/week 2 weeks, no recovery, normalized by β-actin mRNA
Protocol: Rats were euthanized at 48 hr (no recovery) or after 2 weeks (2 weeks recovery) following injection of the rats for 2 weeks with saline (control) or DOX (3 mg/kg/week). BNP mRNA levels in heart were assessed by qRT-PCR and results were normalized by β-actin mRNA (A). […] Results expressed as mean±SD (n=4-6). *p<0.05 and **p<0.01;
A study on serum biomarkers to detect risk of chemotherapy-induced cardiotoxicity was carried out using female rats treated with and without DOX (3 mg/kg/week, i.v. for 2 weeks) (no recovery group: Control and DOX, n=6/group) and with a 2-week recovery period (2 weeks recovery group: Control and DOX, n=6/group).
BNP mRNA levels in heart tissues were measured by reverse-transcription/real time PCR (Sybr green) and normalized using β-actin mRNA levels (13).
Heart total RNA was extracted using the TRIzol method, cDNA was synthesized using High Capacity cDNA Reverse Transcript Kit (Applied Biosystems). Levels of mRNA in cardiomyocytes were measured by real time PCR (Sybr green) using rat specific primers.

increase of BNP mRNA (H9c2 rat cardiomyocytes [3]; 2 hr recovery): ~4 fold | increase of 14,15-DHET in cell media (H9c2 rat cardiomyocytes [4]; 2 hr recovery): ~3 fold | sEH protein levels [5]: Increased | Serum 20-HETE (rat serum; 2 weeks recovery): No change | plasma troponin I (TnI) levels ([6]; Patient #3, 3 months after 3 months of DOX treatment): increased | plasma troponin I (TnI) levels ([6]; Patient #4, 3 months after 3 months of DOX treatment): decreased | Heart tissue BNP mRNA (rat heart tissue): No change | Heart tissue MPO mRNA (rat heart tissue): No change | Heart tissue S100A9 mRNA (rat heart tissue): No change
SMILES: COc1cccc2c1C(=O)c1c(O)c3c(c(O)c1C2=O)C[C@@](O)(C(=O)CO)C[C@@H]3O[C@H]1C[C@H](N)[C@H](O)[C@H](C)O1 [DOX, doxorubicin]
cell viability (H9c2 rat cardiomyocytes [1]): more than 90% | cell surface area (hypertrophy) (H9c2 rat cardiomyocytes [2]; 2 hr recovery): no changes | cell surface area (hypertrophy) (H9c2 rat cardiomyocytes [2]; 6 hr and 24 hr recovery): increased | BNP mRNA levels (H9c2 rat cardiomyocytes [3]; 6 hr and 24 hr recovery): decreased; also recorded: lower than control | 14,15-DHET levels in cell media (H9c2 rat cardiomyocytes [4]; 6 and 24 hr recovery): remained elevated; also recorded: increased | Serum 8-Isoprostane (rat serum; no recovery (~48 hr)): did not significantly change; also recorded: No change | Serum 14,15-DHET (rat serum; no recovery (~48 hr)): did not significantly change; also recorded: No change | Serum 20-HETE (rat serum; no recovery (~48 hr)): did not significantly change; also recorded: No change | plasma troponin I (TnI) levels ([6]; Patients #1, #2 and #5 (no cardiotoxicity), 3 months after 3 months of DOX treatment): increased
